Assay results taken from patent US20230011398A1, “COMBINATION THERAPY APPROACH TO ELIMINATE HIV INFECTIONS” (priority 2019, published 2023).

Tests used:
[1] = test system: CMT latently infected with HIV-1; test: HIV-1 latency reversal in latently infected central memory T cells (p24 staining, HIV-1 mRNA RT-PCR); format: cell-based, human; conditions: for number of HIV-1 p24-producing T cells after latency reversal: latently infected CMT stimulated with IDB, SAR405 2 μM or CQ 10 μM
Source text: Flow cytometry. The following antibodies from Biolegend were used for flow cytometry: Pacific Blue-anti-mouse CD45 (1:100, 103126, clone 30-F11,) APC-anti-human CD45 (1:100, 304012, clone HI30), Pacific Blue-anti-human CD19 (1:100, 302232, clone HIB19), PE-anti-human CD4 (1:100, 317414, clone OKT4), APC/Fire-750-anti-human CD8 (1:100, 34474, clone SK1), FITC-anti-human CD56 (1:100, 392413, clone QA17A16), Pacific Blue-anti-human CD19 (1:100, 302232, clone HIB19), Pacific Blue-anti-human CD3 (1:100, 300329, clone HIT3a), PE/Cy7-anti-HLA-HLA-DR, DP, DQ (1:100, 361708, clone Tü139), PerCP/Cy5.5-anti-human CD11b (1:100, 301327, clone ICRF44), APC/Fire-750-anti-human CD163 (1:100, 333633, clone GHI/61), PE-anti-human CD123 (1:100, 306005, clone 6H6), Alexa Fluor 488 anti-human CD11c (1:100, 301618, clone 3.9), PerCP/Cy5.5-anti-human CD3 (1:100, 300328, clone HIT3a), PerCP/Cy5.5 anti-human CD123 (1:100, 306016, clone 6H6), FITC-anti-mouse CD45 (1:100, 103108, clone 30-F11), PE/Cy7 anti-human CD197 (CCR7) (1:100, 353226, clone G043H7), PE-anti-human CD45R0 (1:100, 304244, clone UCHL1), FITC-anti-human CD45RA (1:100, 304148, clone HI100) and Alexa Fluor 488-anti-CD68 (1:30, 333812, clone Y1/82A), PerCP/Cy5.5-anti-human CD19 (1:100, 302230, clone HIB19), PE-anti-human CD27 (1:100, 356406, clone M-T271) and Pacific Blue-anti-human IgD (1:100, 348224, clone IA6-2). PE-anti-human CD3 (1:100, 556612, clone SP34) and V50-anti-human CD4 (1:100, 560345, clone RPA-T4) were from BD Biosciences. The cells stained with indicated antibodies were analyzed using a BD LSR II flow cytometer (BD Biosciences). To detect HIV-1 p24, spleen cells from Hu-HSC mice were stimulated with 5 μg/ml PHA (Sigma) and 6 ng/ml IL-2 (Biolegend). The cells were stained for T cell markers, followed by fixation and permeabilization using the Cytofix/Cytoperm buffer (BD Bioscience) and intracellular staining with PE-conjugated anti-p24 (1:30, 6604667, clone KC57, Beckman Coulter). The cells were analyzed by flow cytometry using a BD LSR II flow cytometer (BD Bioscience) and FlowJo software (version 10.5.3, BD Bioscience).
T cell isolation and infection with HIV-1. Peripheral blood mononuclear cells (PBMCs) of anonymous healthy donors from the Gulf Coast Blood Center were used to purify CD4^+ T cells with anti-CD4 MACS beads (Miltenyi Biotec). CD3^+CD4^+CD45RA^+CD45RO^−CCR7^+ naïve T cells, CD3^+CD4^+CD45RA^−CD45RO^+CCR7+ central memory T cells (CMT) and CD3^+CD4^+CD45RA^−CD45RO^+CCR7^− effector memory T cells (EMT) were sorted using a BD FACSAria flow cytometer (BD Bioscience). Naive CD4^+ T cells were stimulated with 5 μg/ml PHA and 6 ng/ml IL-2 in RPMI complete medium for 2 days to generate activated CD4^+ T cells. Sorted T cell subsets or activated T cells were infected with HIV-1 CXCR4-tropic NL4-3 or CCRS-tropic AD8 (both virus clones were obtained from the NIH AIDS Reagent Program) at the indicated MOI for 2 h. The cells were washed with PBS and cultured in RPMI complete medium containing 30 nM CCL19 (Biolegend) and 0.3 ng/ml IL-2 (Biolegend) and for 4 days to establish latent HIV infection as described.
Naïve T cells, activated T cells, CMT or EMT with or without infection with HIV-1 (NL4-3, 1 MOI) were cultured for 4 days in the presence of 30 nM CCL19 and 0.3 ng/ml IL-2 for 4 days to establish latent HIV infection. The cells with or without HIV-1 infections were stimulated with 0.1 μM IDB (Ingenol-3,20-dibenzonate, ENZO Life Sciences) in the presence of 0.2 μM ABT-263 (Adooq Bioscience), 2 μM SAR405 (MedChemExpress) or 10 μM chloroquine (CQ, Sigma) as indicated for 48 h. The cells were then incubated with 1 μM FITC-DEVD-FMK (Biovision), followed by staining with APC-Annexin V (Biolegend) and intracellular staining with PE-anti-HIV p24. The cells were analyzed by flow cytometry. The percentage of cell death was calculated by the loss of live cells negative for annexin V and DEVD staining by comparing treated and untreated groups: (untreated—treated)/untreated x 100%. […]

HIV-1-infected T cells = test: Annexin V / DEVD-FITC / p24 cell death assay in T cells with or without HIV-1 infection; format: cell-based, human; conditions: for IDB-induced killing of T cells latently infected by HIV-1: added to 0.1 μM IDB, SAR405 2 μM or ABT-263 0.2 μM; for IDB-induced cell death in HIV-1-infected CMT: autophagy inhibitor added to 100 nM IDB, 24 h
Description: Naïve T cells, activated T cells, CMT or EMT with or without infection with HIV-1 (NL4-3, 1 MOI) were cultured for 4 days in the presence of 30 nM CCL19 and 0.3 ng/ml IL-2 for 4 days to establish latent HIV infection. […] The cells were then incubated with 1 μM FITC-DEVD-FMK (Biovision), followed by staining with APC-Annexin V (Biolegend) and intracellular staining with PE-anti-HIV p24. The cells were analyzed by flow cytometry. The percentage of cell death was calculated by the loss of live cells negative for annexin V and DEVD staining by comparing treated and untreated groups: (untreated—treated)/untreated x 100%.

[2] = test system: HIV-1-infected cells and uninfected bystander T cells; test: Mixed culture of HIV-1-infected and CellTrace Violet-labeled uninfected T cells; conditions: alone or together, 0.2 μM BMS-626529 present, 48 h
Description: To determine the specificity in the killing of HIV-1 infected cells, uninfected CD4 cells were labeled with CellTrace Violet dye (ThermoFisher Scientific) and mixed with HIV-1-infected cells at the ratio of 1:1. The cells were resuspended in RIPMI complete medium containing 0.2 μM BMS-626529, with 0.1 μM IDB, 0.2 μM ABT-263 and 2 μM SAR405 as indicated for 48 h. The cells were incubated with 1 μM FITC-DEVD-FMK, followed by staining with APC-Annexin and analyses by flow cytometry.

[3] = test system: HIV-1-infected Hu-HSC mice; test: SECH treatment of HIV-1-infected Hu-HSC mice (HIV-1 by RT-PCR, rebound after withdrawal); format: in vivo; conditions: JQ1 25 mg/kg b.w. included in SECH
Description: Raltegravir and BMS-663068 (20 mg/kg b.w.) were included as the ART regimen daily. Mice in the control group received ART only daily.
Quantification of HIV-1 mRNA and DNA. HIV-1 mRNA was measured by RT-PCR similar to the described protocols. […] The reaction was carried out by iTaq Universal Probes Supermix (Bio-Rad) with a QuantStudio 5 Real-Time PCR System and analyzed with the QuantStudio Design and Analysis Software (Applied Biosystem). Cycle threshold (Ct) values were calibrated using standard curve generated with the standard samples with known amounts of viral copies.
Spleen cells were isolated and red blood cells were lysed with ammonium chloride lysing buffer (0.15 M NH4Cl, 10 mM KHCO3, 0.1 mM EDTA). Bone marrow cells were collected from femur and tibia. […]
Generation of humanized mice for HIV-1 infection and cure studies. […] Three months later, reconstitution of human immune cells in mouse peripheral blood was determined by flow cytometry. […]
Raltegravir and BMS-663068 (20 mg/kg b.w.) alone were also administered on the alternate days. […] During treatments, mice were monitored daily for body weight, food consumption and mobilities. […]
Peripheral blood was collected at different intervals to detect HIV-1 mRNA by RT-PCR. […] Virus clearance was determined in the spleen, bone marrow by RT-PCR, TZA assay and p24 intracellular staining.

[4] = test system: splenocytes of HIV-1-infected Hu-HSC mice; test: PHA stimulation of splenocytes from Hu-HSC mice 10 days after HIV-1 infection; format: cell-based; conditions: PHA 24 h
Description: FIGS. 11A-11C show analyses of Hu-HSC mice by flow cytometry. (FIG. 11A) Flow cytometry analyses of immune cells in the peripheral blood of Hu-HSC mice. NK, nature killer cells; DC, dendritic cells; M1, M1 macrophages; M2, M2 macrophages. (FIG. 11B) Spleen cells were isolated from Hu-HSC mice (n=4) 10 days post HIV-1 infection and cultured with or without PHA for 24 h. Culture media were collected for HIV-1 mRNA determination by RT-PCR. Data are presented as mean ±SD. PHA vs. control, **p=0.0088 (unpaired two-tailed t test). (FIG. 11C) Spleen cells treated in (b) were stained for CD4, followed by intracellular staining of HIV-1 p24 and flow cytometry analysis. […] Data are presented as mean ±SD. PHA vs. control, **p=0.0003 (unpaired two-tailed t test).
Flow cytometry. […] The cells stained with indicated antibodies were analyzed using a BD LSR II flow cytometer (BD Biosciences). […] The cells were analyzed by flow cytometry using a BD LSR II flow cytometer (BD Bioscience) and FlowJo software (version 10.5.3, BD Bioscience).

Row | Compound | number of HIV-1 p24-producing T cells after latency reversal [1] | IDB-induced killing of T cells latently infected by HIV-1 (HIV-1-infected T cells; 48 h) | IDB-induced cell death in HIV-1-infected CMT (HIV-1-infected T cells) | killing of HIV-1-infected cells in mixed culture [2] | killing of uninfected bystander cells in mixed culture [2] | other results
1 | C[C@@H]1COCCN1c1cc(=O)n2c(n1)N(Cc1cncc(Cl)c1)[C@H](C(F)(F)F)CC2 [SAR405] | decreased the number of HIV-1 p24-producing T cells | increased IDB-induced killing | promoted | killed HIV-1-infected cells | resistant | induction of HIV-1 p24 expression by IDB-induced latency reversal ([1]; CMT infected with HIV-1 AD8 at 1 MOI): inhibited
2 | CC1(C)CCC(c2ccc(Cl)cc2)=C(CN2CCN(c3ccc(C(=O)NS(=O)(=O)c4ccc(N[C@H](CCN5CCOCC5)CSc5ccccc5)c(S(=O)(=O)C(F)(F)F)c4)cc3)CC2)C1 [ABT-263, navitoclax] | – | increased IDB-mediated cell death | – | killed HIV-1-infected cells | resistant | loss of viable HIV-1 p24+ cells in IDB-stimulated HIV-1-infected cells (HIV-1-infected T cells; ABT-263 0.2 μM with IDB, 48 h): significantly increased
3 | Cc1sc2c(c1C)C(c1ccc(Cl)cc1)=N[C@@H](CC(=O)OC(C)(C)C)c1nnc(C)n1-2 [JQ1] | – | – | – | – | – | HIV-1 reactivation and clearance on inclusion of JQ1 in SECH [3]: further increased HIV-1 reactivation and clearance
4 | CCN(CC)CCCC(C)Nc1ccnc2cc(Cl)ccc12 (centres unmarked) [CQ, Chloroquine] | reduced the number of HIV-1 p24-producing T cells | – | promoted | – | – | –
5 | phytohemagglutinin [PHA] | – | – | – | – | – | latency reversal of HIV-1 shown by induction of p24 expression ([1]; CMT, HIV-1 NL4-3 0.1 MOI, 4 days latency): led to latency reversal of HIV-1; latency reversal observed by expression of HIV-1 mRNA after stimulation ([1]; latently infected cells, pol RT-PCR): Latency reversal was also observed; expression of HIV-1 mRNA in splenocytes [4]: induced the expression of HIV-1 mRNA; production of Gag p24 in CD4+ T cells [4]: production of Gag p24
